Experimental data published in ChEMBL document CHEMBL1132783, “Dibasic inhibitors of human mast cell tryptase. Part 1: synthesis and optimization of a novel class of inhibitors” (Bioorg Med Chem Lett, 2000).

Tests used:
Plasminogen = Plasminogen (Homo sapiens, UniProt P00747); assay: Inhibitory potency against plasmin
Tryptase beta-1 = Tryptase beta-1 (Homo sapiens, UniProt Q15661); assay: Inhibitory potency against tryptase
Prothrombin = Prothrombin (Homo sapiens, UniProt P00734); assay: Inhibitory potency against thrombin
Serine protease 1 = Serine protease 1 (Homo sapiens, UniProt P07477); assay: Inhibitory potency against trypsin
Chain of Serine protease 1 (P07477 whole entry): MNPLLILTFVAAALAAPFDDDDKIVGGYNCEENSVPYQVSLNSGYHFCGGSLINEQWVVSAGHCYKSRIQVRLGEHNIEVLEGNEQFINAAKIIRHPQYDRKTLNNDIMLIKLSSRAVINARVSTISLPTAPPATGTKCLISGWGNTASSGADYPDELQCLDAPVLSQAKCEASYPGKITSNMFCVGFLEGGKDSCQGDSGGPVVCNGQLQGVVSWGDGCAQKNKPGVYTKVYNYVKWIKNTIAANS

Chain of Plasminogen (P00747 97-580 limits assumed): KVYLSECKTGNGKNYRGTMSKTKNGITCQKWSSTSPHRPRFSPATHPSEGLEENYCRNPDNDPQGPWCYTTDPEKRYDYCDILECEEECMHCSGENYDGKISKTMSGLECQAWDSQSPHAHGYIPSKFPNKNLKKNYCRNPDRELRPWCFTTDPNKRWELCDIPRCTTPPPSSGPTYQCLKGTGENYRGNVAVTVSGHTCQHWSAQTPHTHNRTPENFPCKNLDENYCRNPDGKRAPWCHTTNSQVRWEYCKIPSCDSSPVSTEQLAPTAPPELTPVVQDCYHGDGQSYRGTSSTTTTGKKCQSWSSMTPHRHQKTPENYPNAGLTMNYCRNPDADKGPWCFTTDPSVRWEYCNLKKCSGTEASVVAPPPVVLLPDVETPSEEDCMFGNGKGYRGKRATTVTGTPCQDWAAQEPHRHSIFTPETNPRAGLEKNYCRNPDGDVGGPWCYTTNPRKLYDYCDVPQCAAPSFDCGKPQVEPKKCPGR
Chain of Plasminogen (P00747 581-810 limits assumed): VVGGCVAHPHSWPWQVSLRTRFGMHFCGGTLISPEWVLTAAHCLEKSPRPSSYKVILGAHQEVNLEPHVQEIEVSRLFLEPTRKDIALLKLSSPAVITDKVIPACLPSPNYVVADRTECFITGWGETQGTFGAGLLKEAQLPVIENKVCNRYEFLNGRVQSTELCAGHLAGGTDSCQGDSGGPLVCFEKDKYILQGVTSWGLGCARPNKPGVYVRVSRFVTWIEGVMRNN
Chain of Tryptase beta-1 (Q15661 whole entry): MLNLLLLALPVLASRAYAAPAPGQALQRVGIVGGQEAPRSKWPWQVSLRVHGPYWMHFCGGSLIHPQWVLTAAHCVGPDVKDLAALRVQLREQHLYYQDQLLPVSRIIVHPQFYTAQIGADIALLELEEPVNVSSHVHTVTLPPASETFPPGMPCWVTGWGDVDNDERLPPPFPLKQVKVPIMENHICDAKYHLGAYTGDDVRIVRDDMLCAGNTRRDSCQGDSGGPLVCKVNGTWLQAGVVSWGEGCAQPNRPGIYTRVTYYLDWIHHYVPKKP

| SMILES | Ki (Plasminogen) [µM] | Ki (Tryptase beta-1) [µM] | Ki (Prothrombin) [µM] | Ki (Serine protease 1) [µM] |
| --- | --- | --- | --- | --- |
| C[C@@H](NC(=O)OCc1ccc(COC(=O)N[C@H](C)C(=O)NCc2ccc(CN)cc2)cc1)C(=O)NCc1ccc(CN)cc1 | > 1000 | 0.031 | > 1000 | 38 |
| NC(N)=Nc1ccc(CNC(=O)NCC(=O)O[C@H]2CCC[C@@H](OC(=O)CNC(=O)NCc3ccc(N=C(N)N)cc3)CCC2)cc1 | > 1000 | 0.002 | > 1000 | 78 |
| NCc1ccc(CNC(=O)CCC(=O)NCc2ccc(CNC(=O)CCC(=O)NCc3ccc(CN)cc3)cc2)cc1 | 769 | 0.003 | > 1000 | 237 |
| N=C(N)Nc1ccc(CNC(=O)CCCC(=O)NCc2ccc(CNC(=O)CCCC(=O)NCc3ccc(NC(=N)N)cc3)cc2)cc1 | > 1000 | 0.1 | 492 | 70 |
| NCc1ccc(CNC(=O)CC(=O)NCc2ccc(CNC(=O)CC(=O)NCc3ccc(CN)cc3)cc2)cc1 | > 1000 | 0.15 | > 1000 | 317 |
| NC(N)=Nc1ccc(CNC(=O)CNC(=O)OCc2ccc(COC(=O)NCC(=O)NCc3ccc(N=C(N)N)cc3)cc2)cc1 | > 1000 | 0.01 | > 1000 | 56 |
| N=C(N)Nc1ccc(CNC(=O)N2CCN(C(=O)O[C@H]3CCC[C@@H](OC(=O)N4CCN(C(=O)NCc5ccccc5)CC4)CCC3)CC2)cc1 | > 1000 | 15 | > 1000 | 182 |
| NCc1ccc(CNC(=O)CCCC(=O)NCc2ccc(CNC(=O)CCCC(=O)NCc3ccc(CN)cc3)cc2)cc1 | > 1000 | 0.009 | > 1000 | 274 |
| NCc1ccc(CNC(=O)CNC(=O)OCc2ccc(COC(=O)NCC(=O)NCc3ccc(CN)cc3)cc2)cc1 | > 1000 | 0.0006 | > 1000 | – |
| O=C(NCc1ccccc1)N1CCN(C(=O)O[C@H]2CCC[C@@H](OC(=O)N3CCN(C(=O)NCc4ccccc4)CC3)CCC2)CC1 | > 1000 | 101 | 14 | 44 |
| N=C(N)Nc1ccc(CNC(=O)CC(=O)NCc2ccc(CNC(=O)CC(=O)NCc3ccc(NC(=N)N)cc3)cc2)cc1 | > 1000 | 0.68 | > 1000 | 73 |
| N=C(N)Nc1ccc(CNC(=O)CCNC(=O)OCc2ccc(COC(=O)NCCC(=O)NCc3ccc(NC(=N)N)cc3)cc2)cc1 | > 1000 | 0.09 | > 1000 | 72 |

The remaining lines, values ahead:

| Ki (Plasminogen) [µM] | Ki (Tryptase beta-1) [µM] | Ki (Prothrombin) [µM] | Ki (Serine protease 1) [µM] | SMILES |
| --- | --- | --- | --- | --- |
| > 230 | 0.005 | > 1000 | 50 | CN(CC(=O)NCc1ccc(CN)cc1)C(=O)OCc1ccc(COC(=O)N(C)CC(=O)NCc2ccc(CN)cc2)cc1 |
| 214 | 0.005 | > 1000 | 162 | CN(Cc1ccc(CN(C)C(=O)CCC(=O)NCc2ccc(CN)cc2)cc1)C(=O)CCC(=O)NCc1ccc(CN)cc1 |
| > 1000 | 0.04 | > 1000 | 146 | N=C(N)Nc1ccc(CNC(=O)CCC(=O)NCc2ccc(CNC(=O)CCC(=O)NCc3ccc(NC(=N)N)cc3)cc2)cc1 |
| > 1000 | 2 | > 1000 | > 1000 | CN(Cc1ccc(CN)cc1)C(=O)CCC(=O)NCc1ccc(CNC(=O)CCC(=O)N(C)Cc2ccc(CN)cc2)cc1 |
| 494 | – | 435 | 39 | N=C(N)Nc1ccc(CNC(=O)N2CCN(C(=O)O[C@H]3CCC[C@@H](OC(=O)N4CCN(C(=O)NCc5ccc(NC(=N)N)cc5)CC4)CCC3)CC2)cc1 |
| 83 | 0.366 | > 1000 | 273 | C[C@H](NC(=O)OCc1ccc(COC(=O)N[C@@H](C)C(=O)NCc2ccc(CN)cc2)cc1)C(=O)NCc1ccc(CN)cc1 |
